Marks after values point to notes of the source that are not given here.
Test system: weeds
Assay: Post-emergence test, activity against weeds
Type: in vivo
Conditions: test plants of 5-15 cm sprayed, rated after three weeks
Protocol: Solvent: 5 parts by weight of acetone
Emulsifier: 1 part by weight of alkylaryl polyglycol ether
To produce a suitable preparation of active compound, 1 part by weight of active compound is mixed with the stated amount of solvent, the stated amount of emulsifier is added and the concentrate is diluted with water to the desired concentration.
Test plants of a height of 5-15 cm are sprayed with the preparation of active compound such that the particular amounts of active compound are applied per unit area. The concentration of the spray liquor is chosen such that the particular amounts of active compound desired are applied in 10001 of water/ha.
After three weeks, the degree of damage to the plants is rated in % damage in comparison to the development of the untreated control.
• 0%=no effect (like untreated control) • 100%=total destruction

SMILES | activity against weeds (degree of damage)
CCOc1nn(Cc2cc(C(F)(F)F)ccc2C(=O)c2cnn(CC)c2O)c(=O)n1C [Example 2] | strong activity
CCn1ncc(C(=O)c2ccc(C(F)(F)F)cc2Cn2nc(SC)n(C)c2=O)c1O [Example 3] | strong activity

Test system: not given
Assay: not given
Conditions: not given

melting point [°C] | SMILES
109 | COC(=O)c1ccc(Cl)c(Cn2nc(C(F)(F)F)n(C)c2=O)c1Cl [IV-2, 4-methyl-5-trifluoromethyl-2-(2,6-dichloro-3-methoxycarbonyl-benzyl)-2,4-dihydro-3H-1,2,4-triazol-3-one]
207 | Cn1c(C(F)(F)F)nn(Cc2c(Cl)ccc(C(=O)O)c2Cl)c1=O [III-3, 4-methyl-5-trifluoromethyl-2-(2,6-dichloro-3-carboxy-benzyl)-2,4-dihydro-3H-1,2,4-triazol-3-one]

Test system: weeds
Assay: Pre-emergence test, activity against weeds
Type: in vivo
Conditions: soil sprayed about 24 hours after sowing, rated after three weeks
Protocol: (§1) Pre-Emergence Test Solvent: 5 parts by weight of acetone Emulsifier: 1 part by weight of alkylaryl polyglycol ether To produce a suitable preparation of active compound, 1 part by weight of active compound is mixed with the stated amount of solvent, the stated amount of emulsifier is added and the concentrate is diluted with water to the desired concentration. Seeds of the test plants are sown in normal soil. After about 24 hours, the soil is sprayed with the preparation of active compound such that the particular amount of active compound is applied per unit area. The concentration of the spray liquor is chosen such that the particular amount of active compound desired is applied in 1000 liters of water per hectare. After three weeks, the degree of damage to plants is rated in % damage in comparison to the development of the untreated control. The figures denote: • 0%=no effect (like untreated control) • 100%=total destruction

SMILES | activity against weeds (degree of damage)
CCOc1nn(Cc2cc(C(F)(F)F)ccc2C(=O)c2cnn(CC)c2O)c(=O)n1C [Example 2] | strong activity
CCn1ncc(C(=O)c2ccc(C(F)(F)F)cc2Cn2nc(SC)n(C)c2=O)c1O [Example 3] | strong activity

Test system: crop plants such as, for example, corn
Assay: Pre-emergence test, tolerance by crop plants
Type: in vivo
Conditions: rated after three weeks
Protocol: as §1

SMILES | tolerance by crop plants
CCOc1nn(Cc2cc(C(F)(F)F)ccc2C(=O)c2cnn(CC)c2O)c(=O)n1C [Example 2] | tolerated well
CCn1ncc(C(=O)c2ccc(C(F)(F)F)cc2Cn2nc(SC)n(C)c2=O)c1O [Example 3] | tolerated well

Test system: not listed separately
Assay: log P by HPLC on reversed-phase column (C 18), acidic range
Type: physicochemical
Conditions: not given
Protocol: Temperature: 43° C. […] The log P values given in Table 3 were determined in accordance with EEC Directive 79/831 Annex V.A8 by HPLC (High Performance Liquid Chromatography) on a reversed-phase column (C 18). Temperature: 43° C. […] The log P values given in Tables 4 were determined in accordance with EEC Directive 79/831 Annex V.A8 by HPLC (High Performance Liquid Chromatography) on a reversed-phase column (C 18). Temperature: 43° C.

logP | SMILES
(IB)logP = 1.99^a) | CCn1ncc(C(=O)c2ccc(Cl)c(Cn3nc(OC)n(C4CC4)c3=O)c2Cl)c1O [Example 31]
logP = 1.81^a) | CCn1ncc(C(=O)c2ccc(Cl)c(Cn3nc(Br)n(C)c3=O)c2Cl)c1O [Example 24]
logP = 1.48^a) | COc1nn(Cc2c(Cl)ccc(C(=O)c3cnn(C)c3O)c2Cl)c(=O)n1C [Example 57]
logP = 2.01^a) | CCOc1nn(Cc2c(Cl)ccc(C(=O)c3cnn(CC)c3O)c2Cl)c(=O)n1C [Example 19]
logP = 3.35^a) | CCOC(=O)c1ccc(C(F)(F)F)cc1Cn1nc(Br)n(C2CC2)c1=O [IV-79]
logP = 3.47^a) | CCn1ncc(C(=O)c2ccc(C(F)(F)F)cc2Cn2nc(SC)n(C)c2=O)c1OCC(=O)c1ccc(C)cc1 [ID-46]
logP = 2.86^a) | CCOC(=O)c1ccc(Br)cc1Cn1nc(SC)n(C)c1=O [IV-80]
logP = 3.26^a) | CCn1ncc(C(=O)c2ccc(C(F)(F)F)cc2Cn2nc(SC)n(C)c2=O)c1OCc1ccc([N+](=O)[O-])cc1 [ID-42]
logP = 2.27^a) | COC(=O)c1ccc(Cl)c(Cn2nc(SC)n(C)c2=O)c1Cl [IV-3]
logP = 2.79^a) | CCOC(=O)c1ccc(C(F)(F)F)cc1Cn1nc(N(C)C)n(C)c1=O [IV-85]
(IB)logP = 2.31^a) | CCOc1nn(Cc2c(Cl)ccc(C(=O)c3cnn(CC)c3O)c2Cl)c(=O)n1C1CC1 [Example 32]
logP = 1.77^a) | CCOc1nn(Cc2c(Cl)ccc(C(=O)c3cnn(C)c3O)c2Cl)c(=O)n1C [Example 56]
logP = 3.24^a) | CCOC(=O)c1ccc(Br)cc1Cn1nc(CC)n(OCC)c1=O [IV-34]
(IB)logP = 2.14^a) | CCn1ncc(C(=O)c2ccc(Cl)c(Cn3nc(C4CC4)n(C4CC4)c3=O)c2Cl)c1O [Example 20]
logP = 1.38^a) | Cc1nn(C)c(O)c1C(=O)c1ccc(Cl)c(CN2CCN(C)C2=O)c1Cl [ID-51]
logP = 2.73^a) | CCOc1nn(Cc2c(Cl)ccc(C(=O)OC)c2Cl)c(=O)n1C1CC1 [IV-16]
logP = 2.95^a) | CCOC(=O)c1ccc(Br)cc1Cn1nc(OCC)n(C)c1=O [IV-58]
logP = 1.38^a) | CCn1ncc(C(=O)c2ccc(Cl)c(Cn3nc(C)n(C)c3=O)c2Cl)c1O [Example 29]
logP = 1.80^a) | CCn1ncc(C(=O)c2ccc(C(F)(F)F)cc2Cn2nc(C)n(C)c2=O)c1O [Example 64]
logP = 1.53^a) | Cn1ncc(C(=O)c2ccc(Cl)c(Cn3nc(Br)n(C)c3=O)c2Cl)c1O [Example 40]
logP = 3.48^a) | CCOC(=O)c1ccc(C(F)(F)F)cc1Cn1nc(OCC)n(C2CC2)c1=O [IV-47]

logP | SMILES
logP = 2.91^a) | CCOC(=O)c1ccc(C(F)(F)F)cc1CN1N=C(C)C(C)(C)C1=O [IV-99]
logP = 2.42^a) | COC(=O)c1ccc(Cl)c(Cn2nc(N(C)C)n(C3CC3)c2=O)c1Cl [IV-21]
logP = 2.82^a) | CCn1ncc(C(=O)c2ccc(C(F)(F)F)cc2Cn2nc(SC)n(C)c2=O)c1OS(C)(=O)=O [ID-12]
logP = 2.30^a) | CCn1ncc(C(=O)c2ccc(Cl)c(Cn3nc(C(F)(F)F)n(C)c3=O)c2Cl)c1O [Example 17]
logP = 2.70^a) | COC(=O)c1ccc(Cl)c(Cn2nc(SC)n(C3CC3)c2=O)c1Cl [IV-19]
(IA)logP = 2.69^a) | C=CCSc1nn(Cc2cc(Br)ccc2C(=O)c2cnn(CC)c2O)c(=O)n1C [Example 12]
logP = 1.73^a) | CCn1ncc(C(=O)c2ccc(S(C)(=O)=O)cc2Cn2nc(OCC(F)(F)F)n(C)c2=O)c1O [Example 68]
logP = 2.53^a) | Cc1nn(C(C)(C)C)c(O)c1C(=O)c1ccc(Cl)c(Cn2nc(C)n(C)c2=O)c1Cl [Example 50]
logP = 3.76^a) | CCn1ncc(C(=O)c2ccc(C(F)(F)F)cc2Cn2nc(SC)n(C)c2=O)c1OCc1cccc(Cl)c1 [ID-41]
logP = 1.91^a) | CCn1ncc(C(=O)c2ccc(Cl)c(Cn3nc(SC)n(C)c3=O)c2Cl)c1O [Example 18]
logP = 3.45^a) | CCOC(=O)c1ccc(C(F)(F)F)cc1Cn1nc(OCC(F)(F)F)n(C)c1=O [IV-93]
logP = 1.65^a) | COC(=O)c1ccc(Cl)c(Cn2nc(C)n(C)c2=O)c1Cl [IV-13]
(IB)logP = 1.82^a) | CCn1ncc(C(=O)c2ccc(Cl)c(Cn3nc(C4CC4)n(C)c3=O)c2Cl)c1O [Example 26]
logP = 2.18^a) | COC(=O)c1ccc(Cl)c(Cn2nc(Br)n(C)c2=O)c1Cl [IV-9]
logP = 2.83^a) | CCn1ncc(C(=O)c2cc(-n3nc(C(F)(F)F)n(C)c3=O)ccc2C(F)(F)F)c1O [Example 13]
logP = 2.68^a) | CCOC(=O)c1ccc(C(F)(F)F)cc1Cn1cnn(C)c1=O [IV-74]
logP = 3.19^a) | CCn1ncc(C(=O)c2ccc(C(F)(F)F)cc2Cn2nc(SC)n(C)c2=O)c1OCC(=O)c1ccccc1 [ID-45]
logP = 2.11^a) | COC(=O)c1ccc(Cl)c(Cn2nc(N(C)C)n(C)c2=O)c1Cl [IV-12]
(IB)logP = 2.16^a) | CCOn1c(CC)nn(Cc2c(Cl)ccc(C(=O)c3cnn(CC)c3O)c2Cl)c1=O [Example 38]
logP = 1.56^a) | CCn1nc(C)c(C(=O)c2ccc(Cl)c(CN3CCN(C)C3=O)c2Cl)c1O [ID-52]

Same assay, conditions: marked a): acidic range, 0.1% aqueous phosphoric acid/acetonitrile gradient, HPLC reversed-phase C 18, 43° C.; Table 1

logP | SMILES
logP = 2.34^a) | CCOc1nn(Cc2cc(C(F)(F)F)ccc2C(=O)c2cnn(CC)c2O)c(=O)n1C [Example 2]
logP = 2.22^a) | CCn1ncc(C(=O)c2ccc(C(F)(F)F)cc2Cn2nc(SC)n(C)c2=O)c1O [Example 3]
